Assay results taken from ChEMBL document CHEMBL5608211, “Antibody-drug conjugates for targeted cancer therapy: Recent advances in potential payloads” (Eur J Med Chem, 2024).

Key:
EMT6 = assay: Cytotoxicity against mouse EMT6 cells assessed as inhibition of cell growth incubated for 3 days by SRB assay; format: functional, cell-based; conditions: EMT6, 72 h
DEL = assay: Cytotoxicity against human DEL cells assessed as inhibition of cell growth incubated for 4 days by CellTiter-Glo luminescent assay; format: functional, cell-based; conditions: 96 h
SK-BR-3 = assay: Cytotoxicity against human SK-BR-3 cells incubated for 144 hrs by CellTiter-Glo luminescent assay; format: functional, cell-based; conditions: SK-BR-3, 144 h
786-0 = assay: Cytotoxicity against human 786-0 cells assessed as cell growth inhibition by measuring lethal concentration by MTT assay; format: functional; conditions: read-out: LC50 (the source's name)
OVCAR-3 = assay: Cytotoxicity against human OVCAR-3 cells assessed as cell growth inhibition by measuring lethal concentration by MTT assay; format: functional; conditions: read-out: LC50 (the source's name)
HOP-92 = assay: Cytotoxicity against human HOP-92 cells assessed as cell growth inhibition by measuring lethal concentration by MTT assay; format: functional; conditions: read-out: LC50 (the source's name)
NCI-H460 = assay: Cytotoxicity against human NCI-H460 cells assessed as cell growth inhibition by measuring lethal concentration by MTT assay; format: functional; conditions: read-out: LC50 (the source's name)
Malme-3M = assay: Cytotoxicity against human Malme-3M cells assessed as cell growth inhibition by measuring lethal concentration by MTT assay; format: functional; conditions: read-out: LC50 (the source's name)
SF-295 = assay: Cytotoxicity against human SF-295 cells assessed as cell growth inhibition by measuring lethal concentration by MTT assay; format: functional; conditions: read-out: LC50 (the source's name)
PC-3 = assay: Cytotoxicity against human PC-3 cells assessed as cell growth inhibition by measuring lethal concentration by MTT assay; format: functional; conditions: read-out: LC50 (the source's name)
NCI-H522 = assay: Cytotoxicity against human NCI-H522 cells assessed as cell growth inhibition by measuring lethal concentration by MTT assay; format: functional; conditions: read-out: LC50 (the source's name)
TK-10 = assay: Cytotoxicity against human TK-10 cells assessed as cell growth inhibition by measuring lethal concentration by MTT assay; format: functional; conditions: read-out: LC50 (the source's name)
OVCAR-5 = assay: Cytotoxicity against human OVCAR-5 cells assessed as cell growth inhibition by measuring lethal concentration by MTT assay; format: functional; conditions: read-out: LC50 (the source's name)
T47D = assay: Cytotoxicity against human T47D cells assessed as cell growth inhibition by measuring lethal concentration by MTT assay; format: functional; conditions: read-out: LC50 (the source's name)
SK-MEL-2 = assay: Cytotoxicity against human SK-MEL-2 cells assessed as cell growth inhibition by measuring lethal concentration by MTT assay; format: functional; conditions: read-out: LC50 (the source's name)
SN12C = assay: Cytotoxicity against human SN12C cells assessed as cell growth inhibition by measuring lethal concentration by MTT assay; format: functional; conditions: read-out: LC50 (the source's name)
HOP-62 = assay: Cytotoxicity against human HOP-62 cells assessed as cell growth inhibition by measuring lethal concentration by MTT assay; format: functional; conditions: read-out: LC50 (the source's name)
U-251 = assay: Cytotoxicity against human U-251 cells assessed as cell growth inhibition by measuring lethal concentration by MTT assay; format: functional; conditions: read-out: LC50 (the source's name)
SF-539 = assay: Cytotoxicity against human SF-539 cells assessed as cell growth inhibition by measuring lethal concentration by MTT assay; format: functional; conditions: read-out: LC50 (the source's name)
COLO 205 = assay: Cytotoxicity against human COLO 205 cells assessed as cell growth inhibition by measuring lethal concentration by MTT assay; format: functional; conditions: read-out: LC50 (the source's name)
SNB-19 = assay: Cytotoxicity against human SNB-19 cells assessed as cell growth inhibition by measuring lethal concentration by MTT assay; format: functional; conditions: read-out: LC50 (the source's name)
SNB-75 = assay: Cytotoxicity against human SNB-75 cells assessed as cell growth inhibition by measuring lethal concentration by MTT assay; format: functional; conditions: read-out: LC50 (the source's name)
MDA-N = assay: Cytotoxicity against human MDA-N cells assessed as cell growth inhibition by measuring lethal concentration by MTT assay; format: functional; conditions: read-out: LC50 (the source's name)
HT-29 = assay: Cytotoxicity against human HT-29 cells assessed as cell growth inhibition by measuring lethal concentration by MTT assay; format: functional; conditions: read-out: LC50 (the source's name)
MDA-MB-435 = assay: Cytotoxicity against human MDA-MB-435 cells assessed as cell growth inhibition by measuring lethal concentration by MTT assay; format: functional; conditions: read-out: LC50 (the source's name)
NCI-H23 = assay: Cytotoxicity against human NCI-H23 cells assessed as cell growth inhibition by measuring lethal concentration by MTT assay; format: functional; conditions: read-out: LC50 (the source's name)
UO-31 = assay: Cytotoxicity against human UO-31 cells assessed as cell growth inhibition by measuring lethal concentration by MTT assay; format: functional; conditions: read-out: LC50 (the source's name)
HCT-15 = assay: Cytotoxicity against human HCT-15 cells assessed as cell growth inhibition by measuring lethal concentration by MTT assay; format: functional; conditions: read-out: LC50 (the source's name)
OVCAR-8 = assay: Cytotoxicity against human OVCAR-8 cells assessed as cell growth inhibition by measuring lethal concentration by MTT assay; format: functional; conditions: read-out: LC50 (the source's name)
CAKI-1 = assay: Cytotoxicity against human CAKI-1 cells assessed as cell growth inhibition by measuring lethal concentration by MTT assay; format: functional; conditions: read-out: LC50 (the source's name)
M14 = assay: Cytotoxicity against human M14 cells assessed as cell growth inhibition by measuring lethal concentration by MTT assay; format: functional; conditions: read-out: LC50 (the source's name)
SF-268 = assay: Cytotoxicity against human SF-268 cells assessed as cell growth inhibition by measuring lethal concentration by MTT assay; format: functional; conditions: read-out: LC50 (the source's name)
RPMI-8226 = assay: Cytotoxicity against human RPMI-8226 cells assessed as cell growth inhibition by measuring lethal concentration by MTT assay; format: functional; conditions: read-out: LC50 (the source's name)
OVCAR-4 = assay: Cytotoxicity against human OVCAR-4 cells assessed as cell growth inhibition by measuring lethal concentration by MTT assay; format: functional; conditions: read-out: LC50 (the source's name)
CCRF-CEM = assay: Cytotoxicity against human CCRF-CEM cells assessed as cell growth inhibition by measuring lethal concentration by MTT assay; format: functional; conditions: read-out: LC50 (the source's name)
SK-MEL-5 = assay: Cytotoxicity against human SK-MEL-5 cells assessed as cell growth inhibition by measuring lethal concentration by MTT assay; format: functional; conditions: read-out: LC50 (the source's name)
EKVX = assay: Cytotoxicity against human EKVX cells assessed as cell growth inhibition by measuring lethal concentration by MTT assay; format: functional; conditions: read-out: LC50 (the source's name)
HCT-116 = assay: Cytotoxicity against human HCT-116 cells assessed as cell growth inhibition by measuring lethal concentration by MTT assay; format: functional; conditions: read-out: LC50 (the source's name)
SK-MEL-28 = assay: Cytotoxicity against human SK-MEL-28 cells assessed as cell growth inhibition by measuring lethal concentration by MTT assay; format: functional; conditions: read-out: LC50 (the source's name)
UACC-257 = assay: Cytotoxicity against human UACC-257 cells assessed as cell growth inhibition by measuring lethal concentration by MTT assay; format: functional; conditions: read-out: LC50 (the source's name)
HCC 2998 = assay: Cytotoxicity against human HCC 2998 cells assessed as cell growth inhibition by measuring lethal concentration by MTT assay; format: functional; conditions: read-out: LC50 (the source's name)
NCI/ADR-RES = assay: Cytotoxicity against human MCF7ADR cells assessed as cell growth inhibition by measuring lethal concentration by MTT assay; format: functional; conditions: read-out: LC50 (the source's name)
MOLT-4 = assay: Cytotoxicity against human MOLT-4 cells assessed as cell growth inhibition by measuring lethal concentration by MTT assay; format: functional; conditions: read-out: LC50 (the source's name)
NCI-H226 = assay: Cytotoxicity against human NCI-H226 cells assessed as cell growth inhibition by measuring lethal concentration by MTT assay; format: functional; conditions: read-out: LC50 (the source's name)
KM12 = assay: Cytotoxicity against human KM12 cells assessed as cell growth inhibition by measuring lethal concentration by MTT assay; format: functional; conditions: read-out: LC50 (the source's name)
A549 = assay: Cytotoxicity against human A549 cells assessed as cell growth inhibition by measuring lethal concentration by MTT assay; format: functional; conditions: read-out: LC50 (the source's name)
HL-60 = assay: Cytotoxicity against human HL-60 cells assessed as cell growth inhibition by measuring lethal concentration by MTT assay; format: functional; conditions: read-out: LC50 (the source's name)
BT-549 = assay: Cytotoxicity against human BT-549 cells assessed as cell growth inhibition by measuring lethal concentration by MTT assay; format: functional; conditions: read-out: LC50 (the source's name)
SK-OV-3 = assay: Cytotoxicity against human SK-OV-3 cells assessed as cell growth inhibition by measuring lethal concentration by MTT assay; format: functional; conditions: read-out: LC50 (the source's name)
ACHN = assay: Cytotoxicity against human ACHN cells assessed as cell growth inhibition by measuring lethal concentration by MTT assay; format: functional; conditions: read-out: LC50 (the source's name)
Hs-578T = assay: Cytotoxicity against human Hs-578T cells assessed as cell growth inhibition by measuring lethal concentration by MTT assay; format: functional; conditions: read-out: LC50 (the source's name)
[1] = Cytotoxicity against human […] cells assessed as cell growth inhibition by measuring lethal concentration by MTT assay; format: functional; conditions: read-out: LC50 (the source's name)
SW-620 = assay: Cytotoxicity against human SW620 cells assessed as cell growth inhibition by measuring lethal concentration by MTT assay; format: functional; conditions: read-out: LC50 (the source's name)
IGROV-1 = assay: Cytotoxicity against human IGROV-1 cells assessed as cell growth inhibition by measuring lethal concentration by MTT assay; format: functional; conditions: read-out: LC50 (the source's name)
DU-145 = assay: Cytotoxicity against human DU-145 cells assessed as cell growth inhibition by measuring lethal concentration by MTT assay; format: functional; conditions: read-out: LC50 (the source's name)
UACC-62 = assay: Cytotoxicity against human UACC-62 cells assessed as cell growth inhibition by measuring lethal concentration by MTT assay; format: functional; conditions: read-out: LC50 (the source's name)
A498 = assay: Cytotoxicity against human A498 cells assessed as cell growth inhibition by measuring lethal concentration by MTT assay; format: functional; conditions: read-out: LC50 (the source's name)

COc1cc2c(cc1OCCCCCC(=O)N1C[C@H](CCl)c3c1cc(O)c1ccccc31)N=C[C@@H]1CCCN1C2=O
IC50 (EMT6): 0.0078 nM

CC[C@@]1(O)C(=O)OCc2c1cc1n(c2=O)Cc2c-1nc1cc3c(cc1c2CN)OCO3
IC50 (DEL): 0.7 nM

Cc1cccc2c(O)cc3c(c12)[C@H](CCl)CN3C(=O)c1cn2cc(NC(=O)c3ccc(O)cc3)ccc2n1
IC50 (SK-BR-3): 0.09 nM

C=C1C[C@H]2C=Nc3cc(OCCCCCCCCCCOc4cc5c(cc4OC)C(=O)N4CC(=C)C[C@H]4C=N5)c(OC)cc3C(=O)N2C1
CC50 (786-0): 0.14 nM | CC50 (OVCAR-3): 0.14 nM | CC50 (HOP-92): 0.14 nM | CC50 (NCI-H460): 0.14 nM | CC50 (Malme-3M): 0.14 nM | CC50 (SF-295): 0.14 nM | CC50 (PC-3): 0.14 nM | CC50 (NCI-H522): 0.14 nM | CC50 (TK-10): 0.14 nM | CC50 (OVCAR-5): 0.14 nM | CC50 (T47D): 0.14 nM | CC50 (SK-MEL-2): 0.14 nM | CC50 (SN12C): 0.14 nM | CC50 (HOP-62): 0.14 nM | CC50 (U-251): 0.14 nM | CC50 (SF-539): 0.14 nM | CC50 (COLO 205): 0.14 nM | CC50 (SNB-19): 0.14 nM | CC50 (SNB-75): 0.14 nM | CC50 (MDA-N): 0.14 nM | CC50 (HT-29): 0.14 nM | CC50 (MDA-MB-435): 0.14 nM | CC50 (NCI-H23): 0.14 nM | CC50 (UO-31): 0.14 nM | CC50 (HCT-15): 0.14 nM | CC50 (OVCAR-8): 0.14 nM | CC50 (CAKI-1): 0.14 nM | CC50 (M14): 0.14 nM | CC50 (SF-268): 0.14 nM | CC50 (RPMI-8226): 0.14 nM | CC50 (OVCAR-4): 0.14 nM | CC50 (CCRF-CEM): 0.14 nM | CC50 (SK-MEL-5): 0.14 nM | CC50 (EKVX): 0.14 nM | CC50 (HCT-116): 0.14 nM | CC50 (SK-MEL-28): 0.14 nM | CC50 (UACC-257): 0.14 nM | CC50 (HCC 2998): 0.14 nM | CC50 (NCI/ADR-RES): 0.14 nM | CC50 (MOLT-4): 0.14 nM | CC50 (NCI-H226): 0.14 nM | CC50 (KM12): 0.14 nM | CC50 (A549): 0.14 nM | CC50 (HL-60): 0.14 nM | CC50 (BT-549): 0.14 nM | CC50 (SK-OV-3): 0.14 nM | CC50 (ACHN): 0.14 nM | CC50 (Hs-578T): 0.14 nM | CC50 [1]: 0.14 nM | CC50 (SW-620): 0.14 nM | CC50 (IGROV-1): 0.14 nM | CC50 (DU-145): 0.14 nM | CC50 (UACC-62): 0.14 nM | CC50 (A498): 0.14 nM
